ChEMBL document CHEMBL4507291 (2021)

Key:
[1] = biological target: T1, Tyrosine-protein kinase receptor TYRO3 (Homo sapiens) (UniProt Q06418)
T1 sequence (whole entry): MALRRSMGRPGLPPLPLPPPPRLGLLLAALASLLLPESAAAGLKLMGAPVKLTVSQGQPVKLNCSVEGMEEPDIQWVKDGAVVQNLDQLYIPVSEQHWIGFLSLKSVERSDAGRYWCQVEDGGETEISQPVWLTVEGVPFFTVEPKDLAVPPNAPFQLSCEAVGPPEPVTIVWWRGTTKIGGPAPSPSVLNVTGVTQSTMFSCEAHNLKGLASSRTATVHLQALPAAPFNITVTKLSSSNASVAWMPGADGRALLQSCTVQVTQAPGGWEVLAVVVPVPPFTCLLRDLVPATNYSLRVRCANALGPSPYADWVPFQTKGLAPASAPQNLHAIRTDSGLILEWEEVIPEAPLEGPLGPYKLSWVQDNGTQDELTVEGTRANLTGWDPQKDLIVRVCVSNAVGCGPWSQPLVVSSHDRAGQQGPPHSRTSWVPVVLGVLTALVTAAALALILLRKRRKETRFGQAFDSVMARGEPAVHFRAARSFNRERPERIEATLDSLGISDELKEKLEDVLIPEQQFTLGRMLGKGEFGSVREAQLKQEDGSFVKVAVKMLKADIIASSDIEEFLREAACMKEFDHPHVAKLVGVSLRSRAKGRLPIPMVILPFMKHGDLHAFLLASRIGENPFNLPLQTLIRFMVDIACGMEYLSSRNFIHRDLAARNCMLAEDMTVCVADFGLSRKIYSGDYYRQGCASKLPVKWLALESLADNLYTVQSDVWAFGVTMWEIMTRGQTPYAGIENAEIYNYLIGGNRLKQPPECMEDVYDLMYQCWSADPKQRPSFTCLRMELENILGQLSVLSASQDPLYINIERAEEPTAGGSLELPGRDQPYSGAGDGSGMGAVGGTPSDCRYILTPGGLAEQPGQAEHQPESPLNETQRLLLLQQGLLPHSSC

[2] = biological target: T2, Alpha-2A adrenergic receptor (Homo sapiens) (UniProt P08913); conditions: Compound concentration 10.0 uM
T2 sequence (whole entry): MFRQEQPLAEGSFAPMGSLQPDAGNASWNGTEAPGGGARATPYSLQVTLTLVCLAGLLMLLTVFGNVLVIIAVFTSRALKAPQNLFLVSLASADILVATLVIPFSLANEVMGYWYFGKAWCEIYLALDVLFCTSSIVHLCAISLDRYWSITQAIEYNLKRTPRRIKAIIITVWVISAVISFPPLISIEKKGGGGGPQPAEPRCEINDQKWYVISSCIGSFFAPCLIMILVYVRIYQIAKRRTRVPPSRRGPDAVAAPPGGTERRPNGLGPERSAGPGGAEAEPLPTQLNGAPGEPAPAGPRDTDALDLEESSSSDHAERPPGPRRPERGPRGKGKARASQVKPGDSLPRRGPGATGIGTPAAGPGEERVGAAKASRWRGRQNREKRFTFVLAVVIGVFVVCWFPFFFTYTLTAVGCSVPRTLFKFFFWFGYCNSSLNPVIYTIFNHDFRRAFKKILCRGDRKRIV

[3] = biological target: Homeodomain-interacting protein kinase 1 (Homo sapiens) (UniProt Q86Z02)
[4] = test system: Receptor-type tyrosine-protein kinase FLT3 (Homo sapiens), P36888 [UNDEFINED MUTATION]
[5] = biological target: T3, Rhodopsin kinase GRK7 (Homo sapiens) (UniProt Q8WTQ7)
T3 sequence (whole entry): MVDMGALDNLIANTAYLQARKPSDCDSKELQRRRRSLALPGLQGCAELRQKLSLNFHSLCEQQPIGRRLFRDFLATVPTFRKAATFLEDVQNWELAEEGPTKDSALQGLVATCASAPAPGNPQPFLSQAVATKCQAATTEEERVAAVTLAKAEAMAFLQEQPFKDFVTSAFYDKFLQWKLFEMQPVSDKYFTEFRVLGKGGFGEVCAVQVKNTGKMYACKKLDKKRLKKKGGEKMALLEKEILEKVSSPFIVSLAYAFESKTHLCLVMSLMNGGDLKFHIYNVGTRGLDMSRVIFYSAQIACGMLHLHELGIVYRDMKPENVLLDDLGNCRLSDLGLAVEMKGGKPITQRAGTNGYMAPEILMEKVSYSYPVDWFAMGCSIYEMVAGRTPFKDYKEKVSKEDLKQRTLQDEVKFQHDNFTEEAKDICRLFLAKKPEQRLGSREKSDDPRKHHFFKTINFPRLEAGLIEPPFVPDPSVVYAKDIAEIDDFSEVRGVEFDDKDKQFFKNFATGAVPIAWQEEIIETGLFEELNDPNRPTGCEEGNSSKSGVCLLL

[6] = test system: Phosphatidylinositol 4,5-bisphosphate 3-kinase catalytic subunit alpha isoform (Homo sapiens), P42336 [H1047Y]
[7] = biological target: TRAF2 and NCK-interacting protein kinase (Homo sapiens) (UniProt Q9UKE5)
[8] = biological target: Platelet-derived growth factor receptor alpha (Homo sapiens) (UniProt P16234)
[9] = test system: Tyrosine-protein kinase ABL1 (Homo sapiens), P00519 [T315I]
[10] = biological target: T4, Alpha-2C adrenergic receptor (Homo sapiens) (UniProt P18825); conditions: Compound concentration 10.0 uM
T4 sequence (whole entry): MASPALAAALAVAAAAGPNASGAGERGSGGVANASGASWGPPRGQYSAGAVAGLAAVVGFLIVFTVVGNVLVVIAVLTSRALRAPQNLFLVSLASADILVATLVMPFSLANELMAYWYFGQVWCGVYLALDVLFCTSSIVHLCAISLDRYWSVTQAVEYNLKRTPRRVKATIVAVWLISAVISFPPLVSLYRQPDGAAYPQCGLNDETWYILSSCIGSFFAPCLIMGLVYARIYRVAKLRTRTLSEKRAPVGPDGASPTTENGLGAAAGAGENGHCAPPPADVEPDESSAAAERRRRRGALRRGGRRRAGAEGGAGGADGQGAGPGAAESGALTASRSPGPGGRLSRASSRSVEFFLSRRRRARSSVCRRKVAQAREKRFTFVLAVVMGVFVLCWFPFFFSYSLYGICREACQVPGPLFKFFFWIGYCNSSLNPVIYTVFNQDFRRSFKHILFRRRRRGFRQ

[11] = biological target: Serine/threonine-protein kinase PAK 3 (Homo sapiens) (UniProt O75914)
[12] = biological target: Bone morphogenetic protein receptor type-2 (Homo sapiens) (UniProt Q13873)
[13] = biological target: Serine/threonine-protein kinase N1 (Homo sapiens) (UniProt Q16512)
[14] = Compound concentration 1000.0 nM
[15] = Compound concentration 100.0 nM

Phosphatidylinositol 4,5-bisphosphate 3-kinase catalytic subunit alpha isoform (Homo sapiens), P42336 [H1047Y], sequence (P42336 whole entry H1047Y, canonical isoform): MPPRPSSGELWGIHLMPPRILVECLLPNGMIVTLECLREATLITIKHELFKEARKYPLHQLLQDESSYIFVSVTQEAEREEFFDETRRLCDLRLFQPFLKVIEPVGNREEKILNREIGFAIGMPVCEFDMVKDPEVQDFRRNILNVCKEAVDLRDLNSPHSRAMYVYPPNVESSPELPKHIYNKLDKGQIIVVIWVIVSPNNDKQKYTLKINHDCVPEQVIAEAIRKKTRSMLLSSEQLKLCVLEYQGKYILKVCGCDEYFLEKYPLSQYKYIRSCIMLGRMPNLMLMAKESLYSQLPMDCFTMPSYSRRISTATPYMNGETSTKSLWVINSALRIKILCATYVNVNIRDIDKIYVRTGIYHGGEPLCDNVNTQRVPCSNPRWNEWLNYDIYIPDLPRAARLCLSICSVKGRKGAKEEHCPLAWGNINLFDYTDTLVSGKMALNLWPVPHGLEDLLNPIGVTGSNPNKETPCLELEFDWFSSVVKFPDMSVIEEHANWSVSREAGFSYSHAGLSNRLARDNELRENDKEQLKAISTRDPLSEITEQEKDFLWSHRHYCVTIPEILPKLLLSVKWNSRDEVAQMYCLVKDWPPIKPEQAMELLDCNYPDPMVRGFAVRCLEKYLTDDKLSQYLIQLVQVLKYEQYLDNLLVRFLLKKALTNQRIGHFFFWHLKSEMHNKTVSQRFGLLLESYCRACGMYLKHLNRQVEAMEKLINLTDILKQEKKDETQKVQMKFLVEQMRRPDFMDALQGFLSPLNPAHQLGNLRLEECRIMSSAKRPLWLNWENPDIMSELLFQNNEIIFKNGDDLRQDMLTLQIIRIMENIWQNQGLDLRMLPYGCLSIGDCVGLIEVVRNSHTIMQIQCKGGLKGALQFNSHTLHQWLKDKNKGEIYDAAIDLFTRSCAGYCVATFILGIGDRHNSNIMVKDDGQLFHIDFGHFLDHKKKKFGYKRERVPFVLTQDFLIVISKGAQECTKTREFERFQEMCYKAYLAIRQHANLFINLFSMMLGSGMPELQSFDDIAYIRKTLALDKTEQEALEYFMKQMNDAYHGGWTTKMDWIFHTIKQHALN
Serine/threonine-protein kinase N1 (Homo sapiens), sequence (Q16512 2-942 limits assumed): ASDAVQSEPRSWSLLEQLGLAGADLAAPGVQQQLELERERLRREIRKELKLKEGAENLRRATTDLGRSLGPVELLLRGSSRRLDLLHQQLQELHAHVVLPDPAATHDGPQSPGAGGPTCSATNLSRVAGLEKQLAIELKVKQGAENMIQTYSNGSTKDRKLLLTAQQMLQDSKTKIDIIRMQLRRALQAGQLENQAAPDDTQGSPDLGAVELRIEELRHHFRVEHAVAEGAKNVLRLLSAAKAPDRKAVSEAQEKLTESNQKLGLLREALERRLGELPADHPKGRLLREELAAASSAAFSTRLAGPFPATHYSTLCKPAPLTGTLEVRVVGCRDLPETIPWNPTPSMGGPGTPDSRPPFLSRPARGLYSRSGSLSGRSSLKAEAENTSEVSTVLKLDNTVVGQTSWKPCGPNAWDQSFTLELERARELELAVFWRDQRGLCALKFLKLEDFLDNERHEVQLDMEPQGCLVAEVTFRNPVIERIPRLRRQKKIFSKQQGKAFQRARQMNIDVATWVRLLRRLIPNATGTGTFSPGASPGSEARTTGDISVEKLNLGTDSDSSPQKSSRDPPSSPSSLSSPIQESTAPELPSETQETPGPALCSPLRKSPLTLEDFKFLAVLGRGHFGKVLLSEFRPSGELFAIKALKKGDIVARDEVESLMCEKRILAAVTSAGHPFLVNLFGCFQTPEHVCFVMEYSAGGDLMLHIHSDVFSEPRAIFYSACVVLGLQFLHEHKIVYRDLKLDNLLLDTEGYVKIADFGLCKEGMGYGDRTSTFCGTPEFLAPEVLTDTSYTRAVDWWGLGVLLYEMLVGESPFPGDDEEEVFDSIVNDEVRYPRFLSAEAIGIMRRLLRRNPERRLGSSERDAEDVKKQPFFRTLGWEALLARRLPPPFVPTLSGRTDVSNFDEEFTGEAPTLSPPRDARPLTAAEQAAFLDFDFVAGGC
Receptor-type tyrosine-protein kinase FLT3 (Homo sapiens), P36888 [UNDEFINED MUTATION], sequence (P36888 whole entry, looked up, change not shown): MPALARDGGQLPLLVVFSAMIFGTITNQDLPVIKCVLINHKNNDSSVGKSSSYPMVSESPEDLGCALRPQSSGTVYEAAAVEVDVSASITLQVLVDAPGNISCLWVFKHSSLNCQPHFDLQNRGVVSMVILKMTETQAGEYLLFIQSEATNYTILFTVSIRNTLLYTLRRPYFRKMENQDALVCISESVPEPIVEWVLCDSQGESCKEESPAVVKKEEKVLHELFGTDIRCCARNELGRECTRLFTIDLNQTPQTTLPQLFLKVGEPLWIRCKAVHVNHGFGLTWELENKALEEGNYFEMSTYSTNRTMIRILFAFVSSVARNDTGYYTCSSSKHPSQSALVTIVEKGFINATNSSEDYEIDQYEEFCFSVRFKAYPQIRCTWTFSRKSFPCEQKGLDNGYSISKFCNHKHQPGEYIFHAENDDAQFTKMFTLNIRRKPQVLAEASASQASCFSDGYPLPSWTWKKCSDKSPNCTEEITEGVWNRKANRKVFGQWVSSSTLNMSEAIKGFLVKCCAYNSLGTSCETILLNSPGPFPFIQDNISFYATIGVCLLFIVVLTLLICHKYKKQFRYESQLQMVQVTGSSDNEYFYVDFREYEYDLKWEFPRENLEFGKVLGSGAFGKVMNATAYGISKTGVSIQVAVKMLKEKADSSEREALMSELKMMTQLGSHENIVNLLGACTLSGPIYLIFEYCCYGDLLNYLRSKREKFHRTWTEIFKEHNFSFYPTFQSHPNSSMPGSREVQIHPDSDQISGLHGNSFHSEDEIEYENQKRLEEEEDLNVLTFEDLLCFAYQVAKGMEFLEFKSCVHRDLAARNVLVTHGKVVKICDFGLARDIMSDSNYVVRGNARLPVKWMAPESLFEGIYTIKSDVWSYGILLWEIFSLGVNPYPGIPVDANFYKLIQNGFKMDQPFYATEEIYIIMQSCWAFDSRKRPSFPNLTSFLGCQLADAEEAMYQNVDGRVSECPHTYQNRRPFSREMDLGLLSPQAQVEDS
Serine/threonine-protein kinase PAK 3 (Homo sapiens), sequence (O75914 whole entry, looked up): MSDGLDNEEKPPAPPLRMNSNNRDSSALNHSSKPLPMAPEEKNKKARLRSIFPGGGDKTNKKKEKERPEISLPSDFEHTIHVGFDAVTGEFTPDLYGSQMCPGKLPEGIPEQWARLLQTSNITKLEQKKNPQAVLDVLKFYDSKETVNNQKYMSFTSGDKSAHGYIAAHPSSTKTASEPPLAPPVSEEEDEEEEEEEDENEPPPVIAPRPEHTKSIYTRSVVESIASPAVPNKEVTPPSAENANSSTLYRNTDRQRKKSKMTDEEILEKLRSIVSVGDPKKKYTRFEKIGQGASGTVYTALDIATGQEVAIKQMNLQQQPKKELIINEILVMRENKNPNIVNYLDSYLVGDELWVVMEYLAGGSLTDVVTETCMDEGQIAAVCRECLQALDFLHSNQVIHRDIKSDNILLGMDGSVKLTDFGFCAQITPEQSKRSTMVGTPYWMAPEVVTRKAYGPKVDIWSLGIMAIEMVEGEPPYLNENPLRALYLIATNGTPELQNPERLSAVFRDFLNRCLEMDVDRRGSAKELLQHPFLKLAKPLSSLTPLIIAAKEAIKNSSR
Bone morphogenetic protein receptor type-2 (Homo sapiens), sequence (Q13873 whole entry): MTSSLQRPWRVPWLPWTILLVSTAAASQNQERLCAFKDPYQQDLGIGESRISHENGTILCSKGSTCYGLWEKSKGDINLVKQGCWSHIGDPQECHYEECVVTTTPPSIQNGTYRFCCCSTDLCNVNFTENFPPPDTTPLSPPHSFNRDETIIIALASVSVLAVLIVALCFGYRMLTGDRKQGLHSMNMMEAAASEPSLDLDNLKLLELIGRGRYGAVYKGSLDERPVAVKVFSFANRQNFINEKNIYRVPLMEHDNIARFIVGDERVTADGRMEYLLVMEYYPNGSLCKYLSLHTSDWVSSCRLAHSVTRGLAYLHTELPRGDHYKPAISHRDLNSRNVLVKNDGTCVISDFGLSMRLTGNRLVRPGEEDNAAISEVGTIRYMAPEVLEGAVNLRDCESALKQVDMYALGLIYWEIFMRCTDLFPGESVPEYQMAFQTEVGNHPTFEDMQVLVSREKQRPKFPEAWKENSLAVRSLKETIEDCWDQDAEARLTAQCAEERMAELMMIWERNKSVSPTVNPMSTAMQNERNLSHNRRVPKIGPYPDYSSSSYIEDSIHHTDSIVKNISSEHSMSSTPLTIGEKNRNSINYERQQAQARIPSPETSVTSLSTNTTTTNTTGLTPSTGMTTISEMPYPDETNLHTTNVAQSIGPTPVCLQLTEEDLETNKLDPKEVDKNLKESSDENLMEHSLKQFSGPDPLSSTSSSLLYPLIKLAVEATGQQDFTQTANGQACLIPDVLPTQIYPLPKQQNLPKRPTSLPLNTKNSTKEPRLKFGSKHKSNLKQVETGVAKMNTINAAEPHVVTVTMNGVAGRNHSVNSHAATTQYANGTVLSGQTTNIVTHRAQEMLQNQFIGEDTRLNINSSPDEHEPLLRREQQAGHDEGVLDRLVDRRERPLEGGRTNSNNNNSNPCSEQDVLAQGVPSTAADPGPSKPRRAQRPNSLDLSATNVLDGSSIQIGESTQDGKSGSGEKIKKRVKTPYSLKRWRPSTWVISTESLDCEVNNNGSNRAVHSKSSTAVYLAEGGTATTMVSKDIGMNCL

C[C@@H]1CN(c2cc(-c3nn(C)c4ccc(OC5(C)CC5)cc34)ncn2)C[C@H](C)O1 [MLi-2-NC]
inactive: residual activity [1, 14] 93% | inhibition [2] 12.9% | residual activity [3, 14] 85% | residual activity [4, 14] 91% | residual activity [5, 14] 100% | residual activity [6, 14] 100% | residual activity [7, 14] 80% | residual activity [8, 14] 83% | residual activity [9, 14] 74% | inhibition [10] 15.1% | residual activity [11, 14] 100% | residual activity [12, 14] 54% | residual activity [13, 14] 100%

C[C@@H]1CN(c2cc(-c3n[nH]c4ccc(OC5(C)CC5)cc34)ncn2)C[C@H](C)O1 [MLi-2]
inactive: residual activity [1, 15] 100% | inhibition [2] -2.84% | residual activity [3, 15] 69% | residual activity [4, 15] 100% | residual activity [5, 15] 64% | residual activity [6, 15] 76% | residual activity [7, 15] 100% | residual activity [8, 15] 75% | residual activity [9, 15] 86% | inhibition [10] 7.85% | residual activity [11, 15] 83% | residual activity [12, 15] 75% | residual activity [13, 15] 91%
